These results are taken from patent publication US11912705B2, “Cathinone derivatives, pharmaceutical formulations, and methods” (The Corporation of Mercer University, priority 2020, dated 2024).

pIC50, pKi: −log10 of the molar value.

By pIC50 is commonly meant the IC50 on a negative log10 scale, so that one unit is a factor of ten. A word on the pKi: it is the negative decadic logarithm of the Ki, by convention in mol/L.

Experiment [1] deals with mice on the FVB background. As to the kind of experiment: Defecation (fecal pellets) / gastrointestinal motility in mice. The class given is in vivo. The note with it: 2.8 mg/kg, s.c. As for the experimental part: Since functional inhibition of neurotransmitter transporters, particularly DAT, is classically known to cause psychomotor stimulation, the ability of Compound (1) to induce this effect in mice was assessed, directly comparing results to α-PHP, a pyrrolidine-substituted analog of Compound (1). Adult male and female mice on the FVB background were injected subcutaneously and then immediately placed inside of an open field chamber, where their activity was recorded automatically for 20-min by an overhead camera connected to a PC running EthoVision XT software. […] Data are means (±SEM).
Consistent with pre-synaptic M2R antagonist activity, also observed was an increase in defecation caused by Compound (1) (FIG. 4). […] Regarding FIG. 4, Compound (1) (2.8 mg/kg, s.c.) increased gastrointestinal motility compared to vehicle and α-PHP (2.8 mg/kg, s.c.) treated mice. Scatter dot plots with means (±SEMs).

The next experiment concerns the target T1, Serotonin transporter (Rattus norvegicus, UniProt P31652).
T1 construct: tissue Eurofins/Cerep (contract testing); host or cells: rat brain synaptosomes (per the earlier reading)
Kind of experiment: Serotonin transporter uptake (rat brain synaptosomes). The class given is biochemical. As for the experimental part:
(§1) Compounds (1) and (2) were tested at several concentrations for IC50 or EC50 determination at target receptors. […] For antagonist assays, Kb affinity values were calculated from IC50 values using GraphPad Prism 9 (San Diego, Calif. USA).

Another experiment has as its target T2, Dopamine transporter (Homo sapiens, UniProt Q01959).
T2 construct: Eurofins/Cerep (contract testing)
Kind of experiment: Dopamine transporter uptake (h). The format is cell-based. The procedure:
as §1

Another experiment has as its target T3, M2 (h) (Homo sapiens, UniProt P08172).
T3 construct: expressed in transfected cells; host or cells: CHO cells (human recombinant)
T3 sequence (P08172 1-466): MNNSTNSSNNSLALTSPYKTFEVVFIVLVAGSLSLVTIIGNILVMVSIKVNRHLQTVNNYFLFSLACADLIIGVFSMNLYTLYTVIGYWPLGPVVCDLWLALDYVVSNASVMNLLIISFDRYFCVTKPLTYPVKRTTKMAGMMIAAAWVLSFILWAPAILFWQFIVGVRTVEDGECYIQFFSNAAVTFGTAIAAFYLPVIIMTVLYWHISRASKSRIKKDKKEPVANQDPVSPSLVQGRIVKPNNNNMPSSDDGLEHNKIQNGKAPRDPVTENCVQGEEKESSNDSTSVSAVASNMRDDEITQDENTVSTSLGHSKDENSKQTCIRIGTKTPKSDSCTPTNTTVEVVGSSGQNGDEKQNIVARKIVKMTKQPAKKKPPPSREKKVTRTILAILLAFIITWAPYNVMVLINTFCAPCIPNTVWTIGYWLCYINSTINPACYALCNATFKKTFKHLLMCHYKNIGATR
As to the kind of experiment: M2 (h) antagonist effect, cAMP HTRF cellular functional assay. The format is cell-based. As for the experimental part:
as §1
Background: TR-FRET usually uses a lanthanide donor and a delayed reading to cut background.

The target of experiment [2] is T4, human SERT (Homo sapiens, UniProt P31645). As to conditions: read-out: Affinity (Ki) SERT; from Eshleman et al. 2017; cited from earlier work.
The target of experiment [3] is T5, human NET (Homo sapiens, UniProt P23975). As to conditions: read-out: Uptake Inhibition (IC50) NET; from Eshleman et al. 2017; cited from earlier work.
Another experiment addresses T6, M2Rs (Homo sapiens, UniProt P08172).
T6 sequence (P08172 1-466): T3 sequence (P08172 1-466)
Kind of experiment: M2R β-arrestin recruitment. The class given is cell-based. From the text:
Data are shown as normalized means (±SEM) of two, independent determinations, with oxotremorine tested at each concentration in duplicate and α-PHP tested in quadruplicate. [*Basal signaling is defined as the normalized RLU emitted by untreated cells.]
Background: Activated receptors often draw arrestin, which recruitment assays turn into a signal.

Experiment [4] deals with T7, human DAT (Homo sapiens, UniProt Q01959). As to conditions: read-out: Uptake Inhibition (IC50) DAT; from Eshleman et al. 2017; cited from earlier work.
For experiment [5], the target named is T4, human SERT. As to conditions: read-out: Uptake Inhibition (IC50) SERT; from Eshleman et al. 2017; cited from earlier work.
The target in experiment [6] is T5, human NET. As to conditions: from Eshleman et al. 2017, cited from earlier work.
For another experiment, the target named is T8, human M1Rs (Homo sapiens, UniProt P11229).
T8 construct: host or cells: HEK293 (CRL-1573, ATCC), transient
T8 sequence (P11229 1-460): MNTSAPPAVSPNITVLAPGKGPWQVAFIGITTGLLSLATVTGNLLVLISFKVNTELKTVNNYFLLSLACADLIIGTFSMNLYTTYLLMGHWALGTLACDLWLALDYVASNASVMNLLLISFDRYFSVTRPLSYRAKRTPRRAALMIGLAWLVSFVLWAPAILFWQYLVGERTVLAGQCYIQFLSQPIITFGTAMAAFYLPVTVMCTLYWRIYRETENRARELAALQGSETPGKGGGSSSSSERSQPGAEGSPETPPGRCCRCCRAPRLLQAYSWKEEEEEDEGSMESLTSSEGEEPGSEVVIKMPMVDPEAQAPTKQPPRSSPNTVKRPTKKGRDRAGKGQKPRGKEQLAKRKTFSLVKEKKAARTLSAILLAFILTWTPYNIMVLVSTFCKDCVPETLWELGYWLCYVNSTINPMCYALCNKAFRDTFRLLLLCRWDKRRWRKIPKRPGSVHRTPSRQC
As to the kind of experiment: M1R phosphoinositide hydrolysis (IP-One HTRF). The format is cell-based.

The target in experiment [7] is T7, human DAT. The note with it: from Eshleman et al. 2017, cited from earlier work.

T7 sequence (Q01959 whole entry): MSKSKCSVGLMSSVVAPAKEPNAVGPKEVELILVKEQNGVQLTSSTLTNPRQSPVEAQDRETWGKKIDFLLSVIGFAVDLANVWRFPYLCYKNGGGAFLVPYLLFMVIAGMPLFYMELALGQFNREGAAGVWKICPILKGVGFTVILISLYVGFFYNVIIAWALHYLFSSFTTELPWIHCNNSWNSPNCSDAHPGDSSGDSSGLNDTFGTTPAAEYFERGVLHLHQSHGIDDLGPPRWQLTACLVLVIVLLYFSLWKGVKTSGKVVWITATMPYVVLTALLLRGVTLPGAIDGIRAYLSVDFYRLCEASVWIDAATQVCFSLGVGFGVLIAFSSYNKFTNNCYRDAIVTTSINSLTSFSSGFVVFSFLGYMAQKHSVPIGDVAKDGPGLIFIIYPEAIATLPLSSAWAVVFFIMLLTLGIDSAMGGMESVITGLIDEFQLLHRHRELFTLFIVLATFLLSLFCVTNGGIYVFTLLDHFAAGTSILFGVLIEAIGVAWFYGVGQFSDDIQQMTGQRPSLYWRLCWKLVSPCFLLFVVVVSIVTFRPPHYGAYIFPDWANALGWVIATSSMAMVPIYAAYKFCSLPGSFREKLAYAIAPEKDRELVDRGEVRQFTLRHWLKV
T5 sequence (P23975 whole entry): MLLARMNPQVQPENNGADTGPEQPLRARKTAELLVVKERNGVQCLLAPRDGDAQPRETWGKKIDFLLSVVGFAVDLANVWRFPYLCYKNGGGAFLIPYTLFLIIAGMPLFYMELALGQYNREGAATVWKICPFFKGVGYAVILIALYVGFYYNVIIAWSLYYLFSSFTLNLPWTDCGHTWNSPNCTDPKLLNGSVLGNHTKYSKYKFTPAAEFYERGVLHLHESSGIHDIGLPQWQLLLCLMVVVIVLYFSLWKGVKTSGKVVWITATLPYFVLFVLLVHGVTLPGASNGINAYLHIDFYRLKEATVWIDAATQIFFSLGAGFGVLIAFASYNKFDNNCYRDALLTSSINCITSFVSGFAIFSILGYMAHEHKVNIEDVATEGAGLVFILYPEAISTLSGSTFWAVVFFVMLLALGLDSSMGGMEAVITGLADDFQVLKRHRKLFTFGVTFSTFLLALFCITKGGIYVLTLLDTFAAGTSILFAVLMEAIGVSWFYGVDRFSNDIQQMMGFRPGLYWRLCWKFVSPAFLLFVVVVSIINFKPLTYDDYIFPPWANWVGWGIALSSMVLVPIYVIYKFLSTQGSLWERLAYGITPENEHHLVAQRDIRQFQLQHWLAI
T4 sequence (P31645 whole entry): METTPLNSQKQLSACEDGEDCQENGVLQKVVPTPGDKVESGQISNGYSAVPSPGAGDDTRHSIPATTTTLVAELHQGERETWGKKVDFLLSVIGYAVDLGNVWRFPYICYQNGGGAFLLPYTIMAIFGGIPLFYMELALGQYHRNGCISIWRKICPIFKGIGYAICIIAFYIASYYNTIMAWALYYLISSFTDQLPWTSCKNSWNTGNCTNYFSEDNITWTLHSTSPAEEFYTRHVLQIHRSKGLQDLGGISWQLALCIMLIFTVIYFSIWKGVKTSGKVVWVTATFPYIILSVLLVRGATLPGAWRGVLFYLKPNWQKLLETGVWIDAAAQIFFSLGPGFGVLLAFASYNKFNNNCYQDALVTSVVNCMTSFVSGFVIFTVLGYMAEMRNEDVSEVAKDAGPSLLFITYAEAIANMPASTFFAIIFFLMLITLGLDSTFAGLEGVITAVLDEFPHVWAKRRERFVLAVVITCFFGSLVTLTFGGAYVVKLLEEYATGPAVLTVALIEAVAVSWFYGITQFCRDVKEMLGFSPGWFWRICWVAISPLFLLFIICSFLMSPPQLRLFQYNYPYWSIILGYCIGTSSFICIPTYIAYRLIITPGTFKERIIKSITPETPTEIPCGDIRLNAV
T2 sequence (Q01959 whole entry): as the sequence (Q01959 whole entry) above
T1 sequence (P31652 whole entry): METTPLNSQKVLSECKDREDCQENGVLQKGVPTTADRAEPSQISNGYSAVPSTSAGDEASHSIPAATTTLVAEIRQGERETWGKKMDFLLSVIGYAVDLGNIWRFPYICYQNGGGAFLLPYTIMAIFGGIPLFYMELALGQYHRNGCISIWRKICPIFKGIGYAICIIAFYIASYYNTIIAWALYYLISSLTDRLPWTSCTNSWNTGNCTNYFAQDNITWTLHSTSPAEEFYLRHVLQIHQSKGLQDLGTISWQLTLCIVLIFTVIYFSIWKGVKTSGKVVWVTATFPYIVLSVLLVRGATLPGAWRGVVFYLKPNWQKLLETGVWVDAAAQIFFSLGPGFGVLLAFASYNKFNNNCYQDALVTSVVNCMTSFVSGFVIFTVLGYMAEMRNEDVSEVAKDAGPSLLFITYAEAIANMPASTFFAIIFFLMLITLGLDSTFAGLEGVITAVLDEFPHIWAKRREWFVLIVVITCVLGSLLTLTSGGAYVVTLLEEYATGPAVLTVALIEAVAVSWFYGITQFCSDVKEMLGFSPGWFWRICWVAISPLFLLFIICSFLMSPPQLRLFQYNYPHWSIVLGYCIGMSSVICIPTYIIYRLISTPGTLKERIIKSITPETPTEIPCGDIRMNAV

`CCCCC(C(=O)c1ccccc1)N1CCCCC1` (centres unmarked) [Compound (1), 1-phenyl-2-(piperidin-1-yl)hexan-1-one]: in experiment [1], the “number of fecal pellets (defecation, gastrointestinal motility)” value was “significantly higher than both vehicle (p<0.0001) and α-PHP treated mice”. Further, the pIC50 was 4.43 against Serotonin transporter, 7.33 against Dopamine transporter and 5.77 at M2 (h). On M2 (h), this molecule had a Kb of 0.12 µM.
For the molecule `CCCCC(C(=O)c1ccccc1)N1CCCCCC1` (centres unmarked) [Compound (2), 2-(azepan-1-yl)-1-phenylhexan-1-one], the values for the pIC50 on Serotonin transporter, against Dopamine transporter and against M2 (h) were 4.92, 7.15 and 5.70, respectively. At M2 (h), this molecule had a Kb of 0.16 µM.
In the case of `CCCCC(C(=O)c1ccccc1)N1CCCC1` (stereo not drawn) [α-PHP, 1-phenyl-2-(pyrrolidin-1-yl)hexan-1-one], in experiment [1], the “number of fecal pellets (defecation, gastrointestinal motility)” value is “no significant difference was observed between the vehicle and α-PHP groups”. Moreover, the negative-log Ki (pKi) was 4.48 at human SERT [2], 6.52 on human NET [6] (read-out: Affinity (Ki) NET) and 7.80 at human DAT [7] (read-out: Affinity (Ki) DAT). Further, the negative-log IC50 (pIC50) at human NET [3] is 7.52; at human DAT [4], 7.66; at human SERT [5], 4.40. In addition, the Kb was found to be 0.501 µM on M2Rs and 1.38 µM on human M1Rs. Moreover, the “affinity at NET, fold higher than α-PPP” value at human NET [6] is 6 fold. Moreover, the “affinity at DAT, fold higher than α-PPP” value at human DAT [7] was 81 fold.
